From article PMC6704710, “Preclinical evaluation of 3D185, a novel potent inhibitor of FGFR1/2/3 and CSF-1R, in FGFR-dependent and macrophage-dominant cancer models” (Journal of Experimental & Clinical Cancer Research : CR, 2019)

What was measured:
Assay in all cases: Eurofins kinase panel
Format in all cases: biochemical
Settings in all cases: read-out: Inhibition rate (%)
[1] = molecular target: T1, PI3 Kinase (p110α(E542K)/p85α)(h) (Homo sapiens, UniProt P42336, E542K)
T1 construct: purchased Eurofins (KinaseProfiler)

MYLK2(h) = molecular target: T2, MYLK2(h) (Homo sapiens, UniProt Q9H1R3)
T2 construct: purchased Eurofins (KinaseProfiler)

CHK1(h) = molecular target: T3, CHK1(h) (Homo sapiens, UniProt O14757)
T3 construct: purchased Eurofins (KinaseProfiler)
T3 sequence (O14757 1-476): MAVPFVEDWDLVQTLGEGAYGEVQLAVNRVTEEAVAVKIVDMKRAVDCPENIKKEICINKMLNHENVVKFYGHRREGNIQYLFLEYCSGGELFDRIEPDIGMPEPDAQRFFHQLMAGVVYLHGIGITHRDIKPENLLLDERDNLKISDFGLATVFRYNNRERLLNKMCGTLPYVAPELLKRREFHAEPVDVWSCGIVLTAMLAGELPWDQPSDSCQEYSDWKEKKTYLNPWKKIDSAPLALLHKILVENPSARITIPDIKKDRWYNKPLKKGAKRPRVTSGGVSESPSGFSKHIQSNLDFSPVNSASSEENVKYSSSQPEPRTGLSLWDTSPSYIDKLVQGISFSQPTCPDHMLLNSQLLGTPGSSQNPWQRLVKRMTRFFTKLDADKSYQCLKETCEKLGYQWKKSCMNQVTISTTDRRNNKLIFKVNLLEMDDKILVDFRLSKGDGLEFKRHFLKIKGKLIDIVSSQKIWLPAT

NLK(h) = molecular target: T4, NLK(h) (Homo sapiens, UniProt Q9UBE8)
T4 construct: purchased Eurofins (KinaseProfiler)
T4 sequence (Q9UBE8 1-527): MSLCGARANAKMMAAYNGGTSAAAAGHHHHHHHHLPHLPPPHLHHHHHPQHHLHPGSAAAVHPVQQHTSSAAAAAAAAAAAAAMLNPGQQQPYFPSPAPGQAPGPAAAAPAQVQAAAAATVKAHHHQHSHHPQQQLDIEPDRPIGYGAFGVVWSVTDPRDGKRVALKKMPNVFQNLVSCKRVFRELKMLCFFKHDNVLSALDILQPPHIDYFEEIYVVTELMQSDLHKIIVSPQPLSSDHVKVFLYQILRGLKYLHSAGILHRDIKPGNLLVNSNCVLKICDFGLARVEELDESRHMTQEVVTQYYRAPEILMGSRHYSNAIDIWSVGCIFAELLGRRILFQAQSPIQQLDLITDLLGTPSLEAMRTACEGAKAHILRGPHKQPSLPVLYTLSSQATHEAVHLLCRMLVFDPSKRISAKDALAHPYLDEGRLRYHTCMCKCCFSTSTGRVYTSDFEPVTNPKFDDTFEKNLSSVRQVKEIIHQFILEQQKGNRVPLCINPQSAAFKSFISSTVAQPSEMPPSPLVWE

cKit(D816V)(h) = molecular target: T5, cKit(D816V)(h) (Homo sapiens, UniProt P10721, D816V)
T5 construct: purchased Eurofins (KinaseProfiler)

ALK6(h) = molecular target: T6, ALK6(h) (Homo sapiens, UniProt O00238)
T6 construct: purchased Eurofins (KinaseProfiler)

TRB2(h) = molecular target: T7, TRB2(h) (Homo sapiens, UniProt Q92519)
T7 construct: purchased Eurofins (KinaseProfiler)
T7 sequence (Q92519 1-343): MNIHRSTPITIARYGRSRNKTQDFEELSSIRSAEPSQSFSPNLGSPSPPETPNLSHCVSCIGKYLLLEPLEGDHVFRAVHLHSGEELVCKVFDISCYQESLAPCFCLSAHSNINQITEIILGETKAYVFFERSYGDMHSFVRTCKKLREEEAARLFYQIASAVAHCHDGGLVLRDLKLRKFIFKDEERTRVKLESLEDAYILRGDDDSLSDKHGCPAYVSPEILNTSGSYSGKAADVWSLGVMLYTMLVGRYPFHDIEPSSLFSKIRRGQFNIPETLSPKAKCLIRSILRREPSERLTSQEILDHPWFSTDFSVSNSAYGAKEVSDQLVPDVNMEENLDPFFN

[2] = molecular target: T8, PI3 Kinase (p110α/p85α)(h) (Homo sapiens, UniProt P42336)
T8 construct: purchased Eurofins (KinaseProfiler)

MAK(h) = molecular target: T9, MAK(h) (Homo sapiens, UniProt P20794)
T9 construct: purchased Eurofins (KinaseProfiler)
T9 sequence (P20794 1-623): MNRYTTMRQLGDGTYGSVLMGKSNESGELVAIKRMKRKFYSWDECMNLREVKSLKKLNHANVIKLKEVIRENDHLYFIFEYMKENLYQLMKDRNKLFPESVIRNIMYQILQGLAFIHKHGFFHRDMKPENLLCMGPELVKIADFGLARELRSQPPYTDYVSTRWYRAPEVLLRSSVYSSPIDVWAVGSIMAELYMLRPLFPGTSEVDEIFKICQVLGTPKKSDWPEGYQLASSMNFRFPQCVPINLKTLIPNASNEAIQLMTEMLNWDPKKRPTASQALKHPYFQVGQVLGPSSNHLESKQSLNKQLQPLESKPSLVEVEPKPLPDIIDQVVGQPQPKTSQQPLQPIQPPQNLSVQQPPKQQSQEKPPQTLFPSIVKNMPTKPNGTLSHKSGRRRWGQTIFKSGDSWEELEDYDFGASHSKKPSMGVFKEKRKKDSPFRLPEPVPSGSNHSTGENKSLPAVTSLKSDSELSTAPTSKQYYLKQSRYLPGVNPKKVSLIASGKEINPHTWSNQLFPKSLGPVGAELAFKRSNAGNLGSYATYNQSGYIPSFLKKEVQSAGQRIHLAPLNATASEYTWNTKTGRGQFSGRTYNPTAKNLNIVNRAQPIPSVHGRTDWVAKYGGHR

T2 sequence (Q9H1R3 whole entry): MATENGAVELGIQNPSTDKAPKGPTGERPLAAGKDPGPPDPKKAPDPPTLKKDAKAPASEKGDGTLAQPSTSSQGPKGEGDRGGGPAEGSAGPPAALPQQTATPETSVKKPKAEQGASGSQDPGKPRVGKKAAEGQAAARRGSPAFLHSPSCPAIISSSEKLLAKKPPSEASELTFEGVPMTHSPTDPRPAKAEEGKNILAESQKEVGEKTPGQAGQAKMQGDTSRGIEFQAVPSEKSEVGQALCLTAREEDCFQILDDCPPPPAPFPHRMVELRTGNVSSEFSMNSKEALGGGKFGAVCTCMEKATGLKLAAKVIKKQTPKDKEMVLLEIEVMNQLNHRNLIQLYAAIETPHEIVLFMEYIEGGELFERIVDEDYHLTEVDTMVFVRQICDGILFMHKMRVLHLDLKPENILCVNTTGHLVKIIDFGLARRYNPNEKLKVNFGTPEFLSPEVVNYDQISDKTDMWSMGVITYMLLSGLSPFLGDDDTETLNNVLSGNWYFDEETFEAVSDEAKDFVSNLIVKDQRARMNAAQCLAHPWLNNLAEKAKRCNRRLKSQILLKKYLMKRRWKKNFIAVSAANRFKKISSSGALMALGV
T6 sequence (O00238 14-502): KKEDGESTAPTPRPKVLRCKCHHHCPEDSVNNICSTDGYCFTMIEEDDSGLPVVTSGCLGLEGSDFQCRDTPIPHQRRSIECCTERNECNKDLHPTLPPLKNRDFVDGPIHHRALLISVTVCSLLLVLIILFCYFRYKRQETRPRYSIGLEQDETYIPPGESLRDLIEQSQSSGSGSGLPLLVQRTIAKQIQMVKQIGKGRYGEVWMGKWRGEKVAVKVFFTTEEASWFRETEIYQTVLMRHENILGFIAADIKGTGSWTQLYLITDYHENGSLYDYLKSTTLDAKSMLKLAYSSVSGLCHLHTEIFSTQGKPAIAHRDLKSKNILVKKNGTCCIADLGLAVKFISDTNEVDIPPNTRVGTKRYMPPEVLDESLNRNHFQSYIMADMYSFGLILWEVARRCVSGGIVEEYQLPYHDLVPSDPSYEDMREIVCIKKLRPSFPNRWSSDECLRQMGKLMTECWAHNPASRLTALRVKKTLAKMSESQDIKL
T8 sequence (P42336 whole entry): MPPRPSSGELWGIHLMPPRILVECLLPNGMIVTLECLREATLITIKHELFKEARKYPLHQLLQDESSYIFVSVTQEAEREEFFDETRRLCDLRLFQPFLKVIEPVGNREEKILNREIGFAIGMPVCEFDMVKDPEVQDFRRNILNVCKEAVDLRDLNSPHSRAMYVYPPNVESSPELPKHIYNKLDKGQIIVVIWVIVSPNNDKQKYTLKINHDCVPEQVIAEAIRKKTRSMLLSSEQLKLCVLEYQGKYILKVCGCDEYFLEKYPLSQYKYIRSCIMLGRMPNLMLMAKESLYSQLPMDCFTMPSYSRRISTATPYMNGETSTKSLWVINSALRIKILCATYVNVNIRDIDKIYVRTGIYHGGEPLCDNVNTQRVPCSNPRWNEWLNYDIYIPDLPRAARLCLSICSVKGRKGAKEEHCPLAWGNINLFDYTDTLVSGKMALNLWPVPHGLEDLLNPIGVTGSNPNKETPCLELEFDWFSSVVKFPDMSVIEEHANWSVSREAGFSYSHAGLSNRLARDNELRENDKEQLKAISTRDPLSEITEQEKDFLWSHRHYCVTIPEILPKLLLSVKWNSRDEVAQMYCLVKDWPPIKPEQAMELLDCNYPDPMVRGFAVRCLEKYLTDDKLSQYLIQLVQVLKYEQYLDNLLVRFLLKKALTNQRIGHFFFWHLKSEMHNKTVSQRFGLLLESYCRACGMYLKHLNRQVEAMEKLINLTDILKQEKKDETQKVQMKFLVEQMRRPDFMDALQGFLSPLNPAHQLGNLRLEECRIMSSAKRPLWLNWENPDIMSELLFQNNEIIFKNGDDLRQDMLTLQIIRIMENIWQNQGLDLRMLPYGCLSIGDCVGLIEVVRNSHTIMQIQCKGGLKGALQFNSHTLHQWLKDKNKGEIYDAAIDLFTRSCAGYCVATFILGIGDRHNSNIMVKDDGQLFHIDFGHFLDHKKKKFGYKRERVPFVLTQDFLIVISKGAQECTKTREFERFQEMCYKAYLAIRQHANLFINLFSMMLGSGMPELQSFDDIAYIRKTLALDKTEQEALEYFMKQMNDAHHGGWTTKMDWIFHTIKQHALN
T8 sequence (P27986 whole entry partner): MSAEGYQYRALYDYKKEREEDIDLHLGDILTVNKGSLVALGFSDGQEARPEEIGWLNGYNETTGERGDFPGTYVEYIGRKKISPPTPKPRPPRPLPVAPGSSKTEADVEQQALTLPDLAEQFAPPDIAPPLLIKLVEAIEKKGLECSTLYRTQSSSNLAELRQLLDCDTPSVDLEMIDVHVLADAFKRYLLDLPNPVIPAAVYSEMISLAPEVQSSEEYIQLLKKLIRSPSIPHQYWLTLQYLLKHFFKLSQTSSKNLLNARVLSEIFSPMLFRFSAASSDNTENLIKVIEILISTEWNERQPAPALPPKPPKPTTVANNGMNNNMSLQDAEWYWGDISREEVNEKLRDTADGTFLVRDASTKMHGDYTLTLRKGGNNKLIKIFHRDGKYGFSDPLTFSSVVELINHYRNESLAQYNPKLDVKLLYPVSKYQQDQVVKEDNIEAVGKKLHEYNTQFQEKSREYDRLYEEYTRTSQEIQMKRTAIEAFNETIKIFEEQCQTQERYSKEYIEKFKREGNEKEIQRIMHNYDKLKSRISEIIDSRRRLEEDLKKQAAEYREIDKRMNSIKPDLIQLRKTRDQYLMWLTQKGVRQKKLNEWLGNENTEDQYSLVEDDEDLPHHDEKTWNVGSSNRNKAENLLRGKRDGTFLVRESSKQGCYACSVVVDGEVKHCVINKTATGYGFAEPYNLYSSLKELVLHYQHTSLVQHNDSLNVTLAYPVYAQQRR
T5 sequence (P10721 26-976 D816V): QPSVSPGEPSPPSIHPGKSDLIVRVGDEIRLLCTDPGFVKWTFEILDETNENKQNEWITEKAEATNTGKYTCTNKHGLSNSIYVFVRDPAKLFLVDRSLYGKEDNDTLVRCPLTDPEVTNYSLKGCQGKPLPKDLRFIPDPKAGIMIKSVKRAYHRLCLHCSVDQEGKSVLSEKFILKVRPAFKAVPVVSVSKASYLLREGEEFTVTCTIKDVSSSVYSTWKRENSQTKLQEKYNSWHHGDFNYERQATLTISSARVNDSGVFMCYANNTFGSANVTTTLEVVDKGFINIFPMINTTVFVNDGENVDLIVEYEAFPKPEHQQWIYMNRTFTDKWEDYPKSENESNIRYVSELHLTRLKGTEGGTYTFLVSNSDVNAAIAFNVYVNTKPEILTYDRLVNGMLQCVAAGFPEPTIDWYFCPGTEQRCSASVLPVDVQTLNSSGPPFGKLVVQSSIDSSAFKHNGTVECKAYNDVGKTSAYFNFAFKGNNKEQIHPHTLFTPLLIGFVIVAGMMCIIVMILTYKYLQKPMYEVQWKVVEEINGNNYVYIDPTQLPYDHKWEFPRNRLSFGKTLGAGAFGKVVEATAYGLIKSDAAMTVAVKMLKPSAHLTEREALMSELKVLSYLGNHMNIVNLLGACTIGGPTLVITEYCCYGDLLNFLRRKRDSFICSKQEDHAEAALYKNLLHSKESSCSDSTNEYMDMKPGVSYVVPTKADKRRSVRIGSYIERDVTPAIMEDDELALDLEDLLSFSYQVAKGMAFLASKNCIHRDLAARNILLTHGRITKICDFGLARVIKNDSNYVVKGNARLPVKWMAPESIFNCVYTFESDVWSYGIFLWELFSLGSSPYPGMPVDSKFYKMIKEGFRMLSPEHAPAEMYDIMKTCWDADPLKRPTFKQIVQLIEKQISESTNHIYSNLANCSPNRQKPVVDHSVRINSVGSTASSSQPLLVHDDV
T1 sequence (P42336 whole entry E542K): as the sequence (P42336 whole entry) above, with E542K counted along it
T1 sequence (P27986 whole entry partner): as the sequence (P27986 whole entry partner) above

Molecule `COc1cc(OC)c(Cl)c(-c2ccc3c(NC(=O)c4ccc(N5CCNC(C)(C)C5)cc4)n[nH]c3n2)c1Cl` [3D185] has an inhibition at 0.01 µM ([1]; 10 nM) of -2%, an inhibition at 0.1 µM ([1]; 100 nM) of 2% and an inhibition at 1 µM ([1]; 1000 nM) of 2%. For the same molecule, the inhibition at 0.01 µM (MYLK2(h); 10 nM) was 7%, the inhibition at 0.1 µM (MYLK2(h); 100 nM) was 0% and the inhibition at 1 µM (MYLK2(h); 1000 nM) was 21%. The inhibition at 0.01 µM (CHK1(h); 10 nM) was 3%, the inhibition at 0.1 µM (CHK1(h); 100 nM) was -6% and the inhibition at 1 µM (CHK1(h); 1000 nM) was -3%. It also gave an inhibition at 0.01 µM (NLK(h); 10 nM) of 0%, an inhibition at 0.1 µM (NLK(h); 100 nM) of -6% and an inhibition at 1 µM (NLK(h); 1000 nM) of 3%. The inhibition at 0.01 µM (cKit(D816V)(h); 10 nM) was -7%, the inhibition at 0.1 µM (cKit(D816V)(h); 100 nM) was 1% and the inhibition at 1 µM (cKit(D816V)(h); 1000 nM) was 3%. It also gave an inhibition at 0.01 µM (ALK6(h); 10 nM) of 3%, an inhibition at 0.1 µM (ALK6(h); 100 nM) of -11% and an inhibition at 1 µM (ALK6(h); 1000 nM) of -5%. For the same molecule, the inhibition at 0.01 µM (TRB2(h); 10 nM) was -3%, the inhibition at 0.1 µM (TRB2(h); 100 nM) was -7% and the inhibition at 1 µM (TRB2(h); 1000 nM) was -4%. For the same molecule, the inhibition at 0.01 µM ([2]; 10 nM) was -1%, the inhibition at 0.1 µM ([2]; 100 nM) was 1% and the inhibition at 1 µM ([2]; 1000 nM) was 2%. It also gave an inhibition at 0.01 µM (MAK(h); 10 nM) of -1%, an inhibition at 0.1 µM (MAK(h); 100 nM) of -9% and an inhibition at 1 µM (MAK(h); 1000 nM) of -17%.
